These results are taken from patent US5264429A, “2-spirocyclopropyl cephalosporin sulfone derivatives” (SynPhar Laboratories, Inc., priority 1991, dated 1993).

The IC50 is the concentration at which inhibition is half-maximal.

Each structure is given as a SMILES string. Where two headings read alike, the source gives them in different places. Bounds are passed on as bounds.

One test has as its target T1, plasmin (Homo sapiens, UniProt P00747).
T1 construct: from tissue; host or cells: human plasma
In words: Inhibition of plasmin (PTH). It is filed as biochemical. As to conditions: pH 8.9, 10 minute preincubation, 22° C. As for the experimental part:
(§1) HLE, CTG, PPE and CTD were tested at 30° C. and the others were
(§2) TRY, trypsin; THR, thrombin; PTH, plasmin; CTC, cathepsin C; ATM,
Enzyme: Purified plasmin from human plasma Substrate: Tosyl-glyclyl-L-prolyl-L-lysine-pNA acetate
Reaction mixture: 50 mM Tris-HCl buffer (pH 8.9), 500 mM NaCl, 5% DMSO, 0.5 mM Substrate.
(§3) Except for Cathepsin D, the enzyme activities were determined by monitoring the increase in absorbance at 410 nm caused by the hydrolysis of chromogenic substrates. The activity of Cathepsin D was determined by monitoring the absorbance of 5% trichloroacetic acid-soluble material at 280 nm.
(§4) Inhibition of enzymes by the compounds described were determined after a 10 minute preincubation with enzymes in reaction mixtures minus substrate. Reactions were initiated by the addition of substrates. The concentration used for assays were porcine pancreatic elastase at 240 nM and human Cathepsin G at 50 nM. Cathepsin D was used at the concentration that produced approximately 0.15 O.D. increase per 20 min at 280 nm under the standard conditions. All other proteases were assayed at the concentrations that produced approximately 0.1 O.D. change per minute at 410 nm under the standard conditions.

Another test deals with T2, cathepsin D (Bos taurus, UniProt P80209).
T2 construct: from tissue; host or cells: bovine spleen
The test is described as follows: Inhibition of cathepsin D (CTD). As to conditions: cathepsin D, pH 3.2, 10 minute preincubation, 30° C.; read-out: IC50 CTD. It is filed as biochemical, bovine. As for the experimental part: as §4, with “Except for Cathepsin D, the enzyme activities were determined by monitoring the increase in absorbance at 410 nm caused by the hydrolysis of chromogenic substrates. The activity of Cathepsin D was determined by monitoring the absorbance of 5% trichloroacetic acid-soluble material at 280 nm. Inhibition” for “Inhibition”, “The concentration used for assays were porcine pancreatic elastase at 240 nM and human Cathepsin G at 50 nM.” left out

In the next test the target is T3, thrombin (Homo sapiens, UniProt P00734).
T3 construct: from tissue; host or cells: human plasma
In words: Inhibition of thrombin (THR). It is filed as biochemical. As to conditions: pH 8.6, 10 minute preincubation, 22° C. As to the method: as §1, §2
Enzyme: Purified thrombin from human plasma
Substrate: Tosyl-glycyl-L-prolyl-L-arginine-p-NA acetate
Reaction mixture: 50 mM Tricine-NaOH buffer (pH 8.6), 500 mM NaCl, 0.1% Polyethyleneglycol 8000, 10% DMSO, 0.5 mM Substrate.
as §3, §4

The target of another test is T4, aminopeptidase M (Sus scrofa, UniProt P15145).
T4 construct: from tissue; host or cells: porcine kidney
T4 sequence (P15145 1-963): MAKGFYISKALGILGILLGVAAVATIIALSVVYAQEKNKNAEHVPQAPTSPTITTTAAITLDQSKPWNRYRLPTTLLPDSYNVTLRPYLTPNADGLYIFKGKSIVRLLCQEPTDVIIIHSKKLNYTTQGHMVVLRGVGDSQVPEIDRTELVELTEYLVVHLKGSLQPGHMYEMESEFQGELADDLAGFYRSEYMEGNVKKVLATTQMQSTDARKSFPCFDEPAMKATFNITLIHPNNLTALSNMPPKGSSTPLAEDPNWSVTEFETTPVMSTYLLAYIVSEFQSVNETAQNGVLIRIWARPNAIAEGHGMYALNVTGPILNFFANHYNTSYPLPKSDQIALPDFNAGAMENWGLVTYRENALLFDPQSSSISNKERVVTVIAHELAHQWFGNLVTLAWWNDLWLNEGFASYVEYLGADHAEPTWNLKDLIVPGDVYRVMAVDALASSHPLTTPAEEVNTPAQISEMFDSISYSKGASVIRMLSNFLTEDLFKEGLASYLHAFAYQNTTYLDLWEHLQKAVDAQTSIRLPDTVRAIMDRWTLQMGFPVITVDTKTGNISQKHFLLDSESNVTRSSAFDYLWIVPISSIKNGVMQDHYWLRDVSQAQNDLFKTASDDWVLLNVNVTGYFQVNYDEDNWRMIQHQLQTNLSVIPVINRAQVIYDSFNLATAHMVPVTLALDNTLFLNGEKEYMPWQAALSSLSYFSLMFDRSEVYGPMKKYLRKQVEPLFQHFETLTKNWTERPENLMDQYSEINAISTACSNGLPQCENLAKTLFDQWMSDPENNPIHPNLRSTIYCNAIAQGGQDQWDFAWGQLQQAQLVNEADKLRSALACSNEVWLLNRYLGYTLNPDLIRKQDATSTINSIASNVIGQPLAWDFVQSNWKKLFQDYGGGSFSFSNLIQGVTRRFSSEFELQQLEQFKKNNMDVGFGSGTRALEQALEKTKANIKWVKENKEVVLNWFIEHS
The test is described as follows: Inhibition of aminopeptidase M (ATM). The class given is biochemical, porcine. As for the experimental part:
as §1, §2
(§5) aminopeptidase M; CTG, cathespin G; CTD, cathespin D; PPE, porcine
Enzyme: Purified aminopeptidase M from porcine kidney
Reaction Mixture: 50 mM Tricine buffer (pH 7.5), 500 mM NaCl, 10% DMSO, 2.0 mM Substrate.
as §3, §4

The target in a further test is T5, trypsin (Bos taurus, UniProt P00760).
T5 construct: from tissue; host or cells: bovine pancreas
T5 sequence (P00760 24-246): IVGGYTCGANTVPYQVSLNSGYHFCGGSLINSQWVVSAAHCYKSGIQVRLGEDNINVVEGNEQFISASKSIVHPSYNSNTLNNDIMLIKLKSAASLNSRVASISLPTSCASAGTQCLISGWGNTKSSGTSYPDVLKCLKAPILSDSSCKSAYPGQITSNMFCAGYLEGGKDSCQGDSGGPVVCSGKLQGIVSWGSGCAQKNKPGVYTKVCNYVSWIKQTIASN
The test is described as follows: Inhibition of trypsin (TRY). It is filed as biochemical, bovine. The note with it: trypsin, pH 8.8, 10 minute preincubation, 22° C.; read-out: IC50 TRY (converted).

Test [1] concerns the target T6, porcine pancreatic elastase (Sus scrofa, UniProt P00772).
T6 construct: from tissue; host or cells: porcine pancreas
The test is described as follows: Inhibition of porcine pancreatic elastase (PPE). The note with it: porcine pancreatic elastase 240 nM, pH 8.9, 10 minute preincubation, 30° C. The class given is biochemical. As for the experimental part: as §1, §5
Porcine pancreatic Elastase (PPE)
Enzyme: Purified elastase from porcine pancreas
Substrate: MeO-succinyl-L-alanyl-L-alanyl-L-prolyl-L-valine-pNA
Reaction mixture: 50 mM Tris[Tris(hydroxymethyl) aminomethane]. HCl buffer (pH 8.9), 500 mM NaCl, 10% DMSO, 1.4 mM Substrate.
as §3, §4

For the next test, the target named is T7, cathepsin C (Bos taurus, UniProt Q3ZCJ8).
T7 construct: from tissue; host or cells: bovine spleen
In words: Inhibition of cathepsin C (CTC). It is filed as biochemical, bovine. As to the method:
as §1, §2
Enzyme: Purified cathepsin C from bovine spleen
Substrate: Glycyl-L-phenylalanine-pNA
Reaction mixture: 50 mM Citrate buffer (pH 5.4), 5 mM B-Mercaptoethanol, 150 mM NaCl, 10% DMSO, 20 mM Substrate.
as §3, §4

T7 sequence (Q3ZCJ8 231-394 limits assumed): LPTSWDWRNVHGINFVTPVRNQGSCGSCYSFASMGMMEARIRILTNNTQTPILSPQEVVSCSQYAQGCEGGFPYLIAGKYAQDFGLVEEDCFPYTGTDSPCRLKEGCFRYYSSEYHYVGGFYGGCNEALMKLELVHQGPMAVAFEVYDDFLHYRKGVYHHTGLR
T7 sequence (Q3ZCJ8 395-463 limits assumed): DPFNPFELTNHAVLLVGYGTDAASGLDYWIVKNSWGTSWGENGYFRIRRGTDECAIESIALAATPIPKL
T7 sequence (Q3ZCJ8 25-134 limits assumed): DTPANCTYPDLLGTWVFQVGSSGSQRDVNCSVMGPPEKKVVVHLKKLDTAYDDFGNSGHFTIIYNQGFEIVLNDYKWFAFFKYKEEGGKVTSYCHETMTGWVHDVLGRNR
T1 sequence (P00747 581-810 limits assumed): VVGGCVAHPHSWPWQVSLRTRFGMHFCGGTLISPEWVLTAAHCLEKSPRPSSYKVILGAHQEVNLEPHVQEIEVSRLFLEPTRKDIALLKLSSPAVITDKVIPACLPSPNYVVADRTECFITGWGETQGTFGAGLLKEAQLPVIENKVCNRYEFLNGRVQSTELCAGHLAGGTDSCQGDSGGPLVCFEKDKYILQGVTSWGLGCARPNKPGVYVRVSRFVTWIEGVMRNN
T1 sequence (P00747 97-580 partner limits assumed): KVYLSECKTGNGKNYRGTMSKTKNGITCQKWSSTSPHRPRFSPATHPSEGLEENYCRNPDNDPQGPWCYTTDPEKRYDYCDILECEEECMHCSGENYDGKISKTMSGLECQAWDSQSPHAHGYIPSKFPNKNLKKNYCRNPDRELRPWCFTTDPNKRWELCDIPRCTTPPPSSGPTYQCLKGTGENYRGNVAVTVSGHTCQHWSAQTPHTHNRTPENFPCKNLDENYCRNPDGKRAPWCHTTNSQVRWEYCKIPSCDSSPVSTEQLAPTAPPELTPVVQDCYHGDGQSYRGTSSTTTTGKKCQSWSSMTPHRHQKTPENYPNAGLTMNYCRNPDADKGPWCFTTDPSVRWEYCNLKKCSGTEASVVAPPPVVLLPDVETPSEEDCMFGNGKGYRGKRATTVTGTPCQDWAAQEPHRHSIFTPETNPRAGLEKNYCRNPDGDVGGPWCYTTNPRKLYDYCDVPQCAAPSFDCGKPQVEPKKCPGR
T2 sequence (P80209 45-390): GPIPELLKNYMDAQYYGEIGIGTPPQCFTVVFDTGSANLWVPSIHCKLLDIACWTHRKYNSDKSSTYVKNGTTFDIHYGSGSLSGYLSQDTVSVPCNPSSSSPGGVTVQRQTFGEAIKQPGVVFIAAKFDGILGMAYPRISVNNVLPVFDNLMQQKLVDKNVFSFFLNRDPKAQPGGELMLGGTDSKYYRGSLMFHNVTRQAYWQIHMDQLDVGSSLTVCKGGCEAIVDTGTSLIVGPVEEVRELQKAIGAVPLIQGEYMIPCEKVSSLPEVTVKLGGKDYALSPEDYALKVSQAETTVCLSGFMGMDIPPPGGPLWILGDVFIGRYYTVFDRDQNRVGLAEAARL
T6 sequence (P00772 27-266): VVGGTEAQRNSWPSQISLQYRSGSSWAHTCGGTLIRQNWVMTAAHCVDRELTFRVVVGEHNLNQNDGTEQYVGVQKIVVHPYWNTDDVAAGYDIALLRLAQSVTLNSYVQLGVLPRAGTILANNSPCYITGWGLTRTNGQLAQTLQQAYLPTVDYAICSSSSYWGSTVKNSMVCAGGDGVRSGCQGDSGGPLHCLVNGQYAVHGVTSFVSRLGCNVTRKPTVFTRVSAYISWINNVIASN
Protocol for trypsin: Enzyme: Purified trypsin from bovine pancreas
Substrate: Bz-L-arginine-p-NA
Reaction mixture: 50 mM Tricine[N-Tris(hydroxymethyl)methylglycine]-NaOH buffer (pH 8.8) 150 mM NaCl, 10% DMSO 1.0 mM Substrate.
Inhibition of enzymes by the compounds described were determined after a 10 minute preincubation with enzymes in reaction mixtures minus substrate. Reactions were initiated by the addition of substrates. […] All other proteases were assayed at the concentrations that produced approximately 0.1 O.D. change per minute at 410 nm under the standard conditions.

Take `CO[C@H]1C(=O)N2C(C(=O)N3CCCC3)=C(C)C3(CC3(c3ccccc3)c3ccccc3)S(=O)(=O)[C@H]12` (stereo partly drawn) [Example 10, 7α-Methoxy-2-spiro (2',2'-diphenyl)cyclopropyl-3-methyl-3-cephem-4-pyrrolidine carboxamide-1,1-dioxide]: the half-inhibitory concentration (IC50) on plasmin was > 40 µM; at cathepsin D, > 9.97 µM; against thrombin, > 40 µM; against aminopeptidase M, > 40 µM; at trypsin it was > 35.9 µM; in test [1], 0.0832 µM. Also, the IC50 at cathepsin C (cathepsin C, pH 5.4, 10 minute preincubation, 22° C., read-out: IC50 CTC) was > 9.99 µM.
Turning to `CCOC(=O)C1CC12C(C)=C(C(=O)OC(c1ccccc1)c1ccccc1)N1C(=O)[C@H](Br)[C@H]1S2(=O)=O` (stereo partly drawn) [Example 13 (1), Benzhydryl 7α-bromo-2-spiro(2'-ethoxycarbonyl)cyclopropyl-3-methyl-3-cephem-4-carboxylate-1,1-dioxide], the IC50 against plasmin is 11 µM; at cathepsin D, > 50 µM; on thrombin, > 40 µM; against aminopeptidase M, > 40 µM; at trypsin, 0.58 µM; in test [1] it was 0.0313 µM. Moreover, the concentration for half-maximal inhibition (IC50) at cathepsin C is > 40 µM.
With `CC1=C(C(=O)OC(c2ccccc2)c2ccccc2)N2C(=O)[C@H](Br)[C@H]2S(=O)(=O)C12CC2(C)c1ccccc1` (stereo partly drawn) [Example 13 (2), Benzhydryl 7α-bromo-2-spiro(2'-phenyl-2'-methyl) cyclopropyl-3-methyl-3-cephem-4-carboxylate-1,1-dioxide], the IC50 at plasmin was 5.5 µM; at cathepsin D it was > 46.6 µM; against thrombin it was > 40 µM; against aminopeptidase M, > 40 µM; at trypsin, 0.147 µM; in test [1], 0.0557 µM. At cathepsin C, the IC50 is > 40 µM.
